Reference: patent US20170057955A1, “Pyridopyrimidinone Compounds for Modulating the Catalytic Activity of Histone Lysine Demethylases (KDMs)” (Dong-A Socio Holdings Co., Ltd., priority 2015, published 2017)

Biological target: T1, Recombinant human JARID1B/KDM5B (Homo sapiens, UniProt Q9UGL1)
T1 construct: purchased Active Motif 31432; host or cells: Sf9 insect cells
Experiment: LANCE Ultra TR-FRET JARID1B (KDM5B) demethylase inhibition assay
Assay type: biochemical
Conditions: 0.1 uM of test-compounds, FLAG-JARID1B, 500 nM biotinylated H3K4me3 peptide substrate, 30 min at room temperature
How it was run: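 FLAG-tagged JARID1B from Sf9 cells, pre-incubated 5 min with 0.1 uM compound (1% DMSO), then 500 nM biotinylated H3K4me3 peptide, 500 uM 2-OG, 25 uM Fe(II), 2 mM ascorbate in pH 7.5 Hepes buffer. After 30 min at room temperature, H3K4me2/1 product detected by TR-FRET (665/590 nm ratio).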

T1 sequence (Q9UGL1 whole entry): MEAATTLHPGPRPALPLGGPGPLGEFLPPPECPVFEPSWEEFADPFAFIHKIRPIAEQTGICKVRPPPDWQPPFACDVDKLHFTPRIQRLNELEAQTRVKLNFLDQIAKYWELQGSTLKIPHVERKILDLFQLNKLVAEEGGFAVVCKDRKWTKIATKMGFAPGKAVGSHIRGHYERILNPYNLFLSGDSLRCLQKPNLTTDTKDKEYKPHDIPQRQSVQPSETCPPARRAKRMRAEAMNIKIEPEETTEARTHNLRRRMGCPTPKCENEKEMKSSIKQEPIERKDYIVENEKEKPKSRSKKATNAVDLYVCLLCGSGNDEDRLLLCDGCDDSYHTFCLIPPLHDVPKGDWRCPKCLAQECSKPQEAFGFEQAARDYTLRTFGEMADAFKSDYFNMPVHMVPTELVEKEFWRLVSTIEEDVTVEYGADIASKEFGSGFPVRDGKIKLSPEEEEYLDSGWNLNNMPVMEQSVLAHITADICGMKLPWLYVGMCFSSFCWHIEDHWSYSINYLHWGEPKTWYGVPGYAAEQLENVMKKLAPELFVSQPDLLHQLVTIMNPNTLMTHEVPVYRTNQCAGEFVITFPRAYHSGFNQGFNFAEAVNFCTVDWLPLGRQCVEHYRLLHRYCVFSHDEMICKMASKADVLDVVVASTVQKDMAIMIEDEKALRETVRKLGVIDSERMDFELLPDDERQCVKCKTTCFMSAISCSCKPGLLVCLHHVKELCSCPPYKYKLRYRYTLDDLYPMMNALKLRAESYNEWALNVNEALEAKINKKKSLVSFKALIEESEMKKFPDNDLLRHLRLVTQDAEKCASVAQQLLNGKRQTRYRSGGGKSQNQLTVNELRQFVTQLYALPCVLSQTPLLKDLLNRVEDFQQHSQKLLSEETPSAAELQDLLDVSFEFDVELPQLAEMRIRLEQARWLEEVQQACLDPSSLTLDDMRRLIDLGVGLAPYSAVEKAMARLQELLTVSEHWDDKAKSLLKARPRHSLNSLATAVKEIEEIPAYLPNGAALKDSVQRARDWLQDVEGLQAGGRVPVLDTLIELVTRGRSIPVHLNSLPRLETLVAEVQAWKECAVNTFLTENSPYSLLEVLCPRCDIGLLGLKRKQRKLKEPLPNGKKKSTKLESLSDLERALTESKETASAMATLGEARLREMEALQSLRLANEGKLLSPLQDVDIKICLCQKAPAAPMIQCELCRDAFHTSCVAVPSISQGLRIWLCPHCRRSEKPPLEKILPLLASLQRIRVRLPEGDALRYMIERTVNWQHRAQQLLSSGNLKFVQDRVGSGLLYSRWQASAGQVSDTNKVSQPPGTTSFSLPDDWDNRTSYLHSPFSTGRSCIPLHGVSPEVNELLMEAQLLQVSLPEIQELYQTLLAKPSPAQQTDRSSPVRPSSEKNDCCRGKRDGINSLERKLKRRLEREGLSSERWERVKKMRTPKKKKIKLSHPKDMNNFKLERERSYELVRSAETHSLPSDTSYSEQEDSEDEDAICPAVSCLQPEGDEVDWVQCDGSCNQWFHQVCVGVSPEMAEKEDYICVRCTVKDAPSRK

inhibition at 0.1 µM [%] | SMILES
20 to 50 | Nc1nn(-c2nccc3c(=O)[nH]cnc23)cc1-c1cccc(Cl)c1 [Compound 32, 8-(3-amino-4-(3-chlorophenyl)-1H-pyrazol-1-yl)pyrido[3,4-d]pyrimidin-4(3H)-one]
≥ 50 | Nc1nn(-c2nccc3c(=O)[nH]cnc23)cc1-c1cccc(OCc2ccccc2)c1 [Compound 31, 8-(3-amino-4-(3-(benzyloxy)phenyl)-1H-pyrazol-1-yl)pyrido[3,4-d]pyrimidin-4(3H)-one]
≥ 50 | O=c1[nH]cnc2c(-c3csc(NCC4CCN(CCO)CC4)n3)nccc12 [Compound 51, 8-(2-(((1-(2-hydroxyethyl)piperidin-4-yl)methyl)amino)thiazol-4-yl)pyrido[3,4-d]pyrimidin-4(3H)-one]
≥ 50 | Nc1nn(-c2nccc3c(=O)[nH]cnc23)cc1-c1cnn(Cc2ccccc2)c1 [Compound 28, 8-(3-amino-1′-benzyl-1H,1′H-[4,4′-bipyrazol]-1-yl)pyrido[3,4-d]pyrimidin-4(3H)-one]
< 20 | CN1CCCC1CCNc1nc(-c2nccc3c(=O)[nH]c(COCc4ccccc4)nc23)cs1 (centres unmarked) [Compound 152, 2-((benzyloxy)methyl)-8-(2-((2-(1-methylpyrrolidin-2-yl)ethyl)amino)thiazol-4-yl)pyrido[3,4-d]pyrimidin-4(3H)-one]
20 to 50 | NCCNc1nc(-c2nccc3c(=O)[nH]cnc23)cs1 [Compound 44, 8-(2-((2-aminoethyl)amino)thiazol-4-yl)pyrido[3,4-d]pyrimidin-4(3H)-one]
< 20 | Cc1cccc(-c2cnn(-c3nccc4c(=O)[nH]cnc34)c2)c1 [Compound 1, 8-(4-(m-tolyl)-1H-pyrazol-1-yl)pyrido[3,4-d]pyrimidin-4(3H)-one]
20 to 50 | CN1CCN(c2ccc(-c3cn(-c4nccc5c(=O)[nH]cnc45)nc3N)cc2)CC1 [Compound 17, 8-(3-amino-4-(4-(4-methylpiperazin-1-yl)phenyl)-1H-pyrazol-1-yl)pyrido[3,4-d]pyrimidin-4(3H)-one]
≥ 50 | NCCNc1nc(-c2nccc3c(=O)[nH]c(COc4ccc(F)c(Cl)c4)nc23)cs1 [Compound 88, 8-(2-((2-aminoethyl)amino)thiazol-4-yl)-2-((3-chloro-4-fluorophenoxy)methyl) pyrido[3,4-d]pyrimidin-4(3H)-one]
20 to 50 | CN(C)CCNc1nc(-c2nccc3c(=O)[nH]c(CCc4ccccc4)nc23)cs1 [Compound 162, 8-(2-((2-(dimethylamino)ethyl)amino)thiazol-4-yl)-2-phenethylpyrido[3,4-d]pyrimidin-4(3H)-one]
20 to 50 | O=c1[nH]c(COc2cccc(-c3ccccc3)c2)nc2c(-c3csc(NCCO)n3)nccc12 [Compound 156, 2-(([1,1′-biphenyl]-3-yloxy)methyl)-8-(2-((2-hydroxyethyl)amino)thiazol-4-yl)pyrido[3,4-d]pyrimidin-4(3H)-one]
20 to 50 | Nc1nn(-c2nccc3c(=O)[nH]cnc23)cc1-c1ccc(CCCO)cc1 [Compound 19, 8-(3-amino-4-(4-(3-hydroxypropyl)phenyl)-1H-pyrazol-1-yl)pyrido[3,4-d]pyrimidin-4(3H)-one]
20 to 50 | CN1CCC(Nc2nc(-c3nccc4c(=O)[nH]c(CCc5ccccc5)nc34)cs2)CC1 [Compound 163, 8-(2-((1-methylpiperidin-4-yl)amino)thiazol-4-yl)-2-phenethylpyrido[3,4-d]pyrimidin-4(3H)-one]
20 to 50 | Nc1nn(-c2nccc3c(=O)[nH]cnc23)cc1-c1cnn(CCN2CCOCC2)c1 [Compound 29, 8-(3-amino-1′-(2-morpholinoethyl)-1H,1′H-[4,4′-bipyrazol]-1-yl)pyrido[3,4-d]pyrimidin-4(3H)-one]
≥ 50 | CN(C)CCCNc1nc(-c2nccc3c(=O)[nH]c(COc4ccc(F)c(Cl)c4)nc23)cs1 [Compound 91, 2-((3-chloro-4-fluorophenoxy)methyl)-8-(2-((3-(dimethylamino)propyl)amino)thiazol-4-yl)pyrido[3,4-d]pyrimidin-4(3H)-one]
20 to 50 | O=c1[nH]c(COc2ccc(Cl)cc2Cl)nc2c(-c3csc(NCCO)n3)nccc12 [Compound 135, 2-((2,4-dichlorophenoxy)methyl)-8-(2-((2-hydroxyethyl)amino)thiazol-4-yl)pyrido[3,4-d]pyrimidin-4(3H)-one]
≥ 50 | O=c1[nH]c(COc2ccc(F)c(Cl)c2)nc2c(-c3csc(NC4CCN(Cc5ccccc5)CC4)n3)nccc12 [Compound 102, 8-(2-((1-benzylpiperidin-4-yl)amino)thiazol-4-yl)-2-((3-chloro-4-fluorophenoxy)methyl) pyrido[3,4-d]pyrimidin-4(3H)-one]
20 to 50 | Nc1nn(-c2nccc3c(=O)[nH]cnc23)cc1-c1ccc(CN2CCCC2)cc1 [Compound 34, 8-(3-amino-4-(4-(pyrrolidin-1-ylmethyl)phenyl)-1H-pyrazol-1-yl)pyrido[3,4-d]pyrimidin-4(3H)-one]

inhibition at 0.1 µM [%] | SMILES
20 to 50 | CC(C)N(CCCCCNc1nc(-c2nccc3c(=O)[nH]c(COc4ccc(F)c(Cl)c4)nc23)cs1)C(C)C [Compound 120, 2-((3-chloro-4-fluorophenoxy)methyl)-8-(2-((5-(diisopropylamino)pentyl)amino)thiazol-4-yl)pyrido[3,4-d]pyrimidin-4(3H)-one]
20 to 50 | CN1CCN(Cc2ccc(-c3cn(-c4nccc5c(=O)[nH]cnc45)nc3N)cc2)CC1 [Compound 33, 8-(3-amino-4-(4-((4-methylpiperazin-1-yl)methyl)phenyl)-1H-pyrazol-1-yl)pyrido[3,4-d]pyrimidin-4(3H)-one]
20 to 50 | CCC(O)CNc1nc(-c2nccc3c(=O)[nH]cnc23)cs1 (centres unmarked) [Compound 60, 8-(2-((2-hydroxybutyl)amino)thiazol-4-yl)pyrido[3,4-d]pyrimidin-4(3H)-one]
< 20 | O=c1[nH]c(COCc2ccccc2)nc2c(-c3csc(NCC4CCN(Cc5ccccc5)CC4)n3)nccc12 [Compound 145, 2-((benzyloxy)methyl)-8-(2-(((1-benzylpiperidin-4-yl)methyl)amino)thiazol-4-yl)pyrido[3,4-d]pyrimidin-4(3H)-one]
≥ 50 | CN1CCC(Nc2nc(-c3nccc4c(=O)[nH]c(COc5cc(F)cc(F)c5)nc34)cs2)CC1 [Compound 131, 2-((3,5-difluorophenoxy)methyl)-8-(2-((1-methylpiperidin-4-yl)amino)thiazol-4-yl)pyrido[3,4-d]pyrimidin-4(3H)-one]
≥ 50 | CN(C)CCNc1nc(-c2nccc3c(=O)[nH]c(COc4ccc(F)c(Cl)c4)nc23)cs1 [Compound 87, 2-((3-chloro-4-fluorophenoxy)methyl)-8-(2-((2-(dimethylamino)ethyl)amino)thiazol-4-yl)pyrido[3,4-d]pyrimidin-4(3H)-one]
20 to 50 | CN1CCN(CCn2cc(-c3cn(-c4nccc5c(=O)[nH]cnc45)nc3N)cn2)CC1 [Compound 30, 8-(3-amino-1′-(2-(4-methylpiperazin-1-yl)ethyl)-1H,1′H-[4,4′-bipyrazol]-1-yl)pyrido[3,4-d]pyrimidin-4(3H)-one]
20 to 50 | CN1CCOC(CNc2nc(-c3nccc4c(=O)[nH]cnc34)cs2)C1 (centres unmarked) [Compound 58, 8-(2-(((4-methylmorpholin-2-yl)methyl)amino)thiazol-4-yl)pyrido[3,4-d]pyrimidin-4(3H)-one]
20 to 50 | Nc1nn(-c2nccc3c(=O)[nH]cnc23)cc1-c1cnn(CCN2CCCC2)c1 [Compound 27, 8-(3-amino-1′-(2-(pyrrolidin-1-yl)ethyl)-1H,1′H-[4,4′-bipyrazol]-1-yl)pyrido[3,4-d]pyrimidin-4(3H)-one]
20 to 50 | O=c1[nH]c(COc2cccc(Cl)c2)nc2c(-c3csc(NCCO)n3)nccc12 [Compound 133, 2-((3-chlorophenoxy)methyl)-8-(2-((2-hydroxyethyl)amino)thiazol-4-yl)pyrido[3,4-d]pyrimidin-4(3H)-one]
20 to 50 | C=CCNc1nc(-c2nccc3c(=O)[nH]c(COc4ccc(Cc5ccccc5)cc4)nc23)cs1 [Compound 72, 8-(2-(allylamino)thiazol-4-yl)-2-((4-benzylphenoxy)methyl) pyrido[3,4-d]pyrimidin-4(3H)-one]
20 to 50 | CN(C)CCNc1nc(-c2nccc3c(=O)[nH]cnc23)cs1 [Compound 43, 8-(2-((2-(dimethylamino)ethyl)amino)thiazol-4-yl)pyrido[3,4-d]pyrimidin-4(3H)-one]
≥ 50 | O=c1[nH]c(COc2ccc(F)c(Cl)c2)nc2c(-c3csc(NCC4CCCO4)n3)nccc12 (centres unmarked) [Compound 85, 2-((3-chloro-4-fluorophenoxy)methyl)-8-(2-(((tetrahydrofuran-2-yl)methyl)amino)thiazol-4-yl)pyrido[3,4-d]pyrimidin-4(3H)-one]
20 to 50 | O=c1[nH]cnc2c(-c3cnn(CCO)c3)nccc12 [Compound 63, 8-(1-(2-hydroxyethyl)-1H-pyrazol-4-yl)pyrido[3,4-d]pyrimidin-4(3H)-one]
< 20 | Nc1ncc(-c2nccc3c(=O)[nH]c(COc4ccc(Cc5ccccc5)cc4)nc23)s1 [Compound 68, 8-(2-aminothiazol-5-yl)-2-((4-benzylphenoxy)methyl) pyrido[3,4-d]pyrimidin-4(3H)-one]
< 20 | O=c1[nH]c(COc2ccc(Cc3ccccc3)cc2)nc2c(-c3nccs3)nccc12 [Compound 66, 2-((4-benzylphenoxy)methyl)-8-(thiazol-2-yl)pyrido[3,4-d]pyrimidin-4(3H)-one]
20 to 50 | O=c1[nH]c(COc2cc(Cl)cc(Cl)c2)nc2c(-c3csc(NCCO)n3)nccc12 [Compound 134, 2-((3,5-dichlorophenoxy)methyl)-8-(2-((2-hydroxyethyl)amino)thiazol-4-yl)pyrido[3,4-d]pyrimidin-4(3H)-one]
